Test results published in the supplement of paper PMC10307832.

How the values were obtained:
Assay in all cases: relative viability (nuclei count vs DMSO), 5 days (fraction); higher = more cells survive
[1] = compound: CC1=C(CC(=O)O)c2cc(F)ccc2/C1=C\c1ccc([S+](C)[O-])cc1 [Sulindac] + CCNC(=O)c1noc(-c2cc(C(C)C)c(O)cc2O)c1-c1ccc(CN2CCOCC2)cc1 [Luminespib] (partner 0.01 µM)
Procedure, shortened: (§1)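 Lung cancer cell lines, seeded in 1536-well plates, were treated the following day by pin tool with a single drug or with five library-drug doses (not always all listed) in √10 steps on top of a fixed anchor-drug dose. Cells were fixed and nuclei stained in one step after 5 days, and nuclei were counted. Relative viability is the nuclei count for treated wells divided by that for vehicle wells, reported as medians of duplicate plates.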

[2] = compound: O=c1[nH]cc(F)c(=O)[nH]1 [5-Fluorouracil] + CS(=O)(=O)N1CCN(Cc2cc3nc(-c4cccc5[nH]ncc45)nc(N4CCOCC4)c3s2)CC1 [Pictilisib] (partner 1 µM)
Procedure, shortened: as §1

[3] = compound: CC1=C(CC(=O)O)c2cc(F)ccc2/C1=C\c1ccc([S+](C)[O-])cc1 [Sulindac] + NC(=O)Nc1cc(-c2cccc(F)c2)sc1C(=O)N[C@H]1CCCNC1 [AZD7762] (partner 0.2 µM)
Procedure, shortened: as §1

[4] = compound: CC1=C(CC(=O)O)c2cc(F)ccc2/C1=C\c1ccc([S+](C)[O-])cc1 [Sulindac] + CS(=O)(=O)CCNCc1ccc(-c2ccc3ncnc(Nc4ccc(OCc5cccc(F)c5)c(Cl)c4)c3c2)o1 [Lapatinib] (partner 2 µM)
Procedure, shortened: as §1

Row | Cell Line | relative viability ([1]; first compound 0.08 µM) | relative viability ([1]; first compound 0.253 µM) | relative viability ([1]; first compound 0.8 µM) | relative viability ([1]; first compound 2.53 µM) | relative viability ([1]; first compound 8 µM) | relative viability ([2]; first compound 0.02 µM) | relative viability ([2]; first compound 0.2 µM) | relative viability ([2]; first compound 0.6325 µM) | relative viability ([2]; first compound 2 µM) | relative viability ([3]; first compound 0.08 µM) | relative viability ([3]; first compound 0.253 µM) | relative viability ([3]; first compound 0.8 µM) | relative viability ([3]; first compound 2.53 µM) | relative viability ([3]; first compound 8 µM) | relative viability ([4]; first compound 0.08 µM) | relative viability ([4]; first compound 0.253 µM) | relative viability ([4]; first compound 0.8 µM) | relative viability ([4]; first compound 2.53 µM) | relative viability ([4]; first compound 8 µM)
1 | NCI-H2405 | 0.455 | 0.647 | 0.686 | 0.752 | 0.754 | 0.566 | 0.536 | 0.303 | 0.463 | 0.86 | 0.811 | 0.642 | 0.691 | 0.995 | 1.24 | 1.11 | 0.969 | 1.02 | 1.39
2 | HCC-44 | 0.969 | 1.08 | – | 1.05 | 1.25 | 0.784 | 0.58 | 0.46 | 0.33 | 1.04 | 1.01 | 1.09 | 0.979 | 0.942 | 1.14 | 1.05 | 0.919 | 1.05 | 1.15
3 | HCC-78 | – | – | – | – | – | 0.236 | 0.182 | 0.181 | – | 0.614 | 0.6 | 0.557 | 0.599 | 0.722 | 0.868 | 0.623 | 0.28 | 0.569 | 0.944
4 | COR-L23 | 0.903 | 0.555 | 0.508 | 0.739 | 0.952 | 0.864 | 0.711 | 0.367 | 0.231 | – | – | – | – | – | 1.58 | 1.16 | – | 0.976 | 1.12
5 | NCI-H2009 | 1.15 | 1.01 | 1.05 | 0.986 | 1.15 | 0.798 | 0.679 | 0.533 | 0.446 | – | – | – | – | – | 1.02 | 0.949 | 0.87 | 0.946 | 1.05
6 | NCI-H3122 | 0.136 | 0.0774 | 0.0891 | 0.0935 | 0.105 | 0.608 | 0.662 | 0.312 | 0.256 | 1.2 | 1.08 | 1.01 | 0.968 | 0.947 | 1.05 | 0.978 | 1.03 | 0.966 | 1.03
7 | NCI-H2228 | 0.115 | 0.129 | 0.131 | 0.185 | 0.163 | 0.378 | 0.309 | 0.205 | 0.201 | – | – | – | – | – | 1.4 | 1.3 | 0.575 | 1 | 0.917
8 | NCI-H1944 | 0.753 | 0.838 | 0.706 | 0.864 | 0.963 | 0.4 | 0.357 | 0.295 | 0.243 | 0.519 | 0.382 | 0.526 | 0.512 | 0.551 | 0.882 | 0.906 | 0.696 | 0.842 | 0.885
9 | NCI-H1648 | – | – | – | – | – | – | – | – | – | 0.682 | 0.746 | – | 0.7 | 0.768 | – | – | – | – | –
10 | NCI-H661 | 0.969 | 0.97 | 0.852 | 0.9 | 0.957 | 0.35 | 0.469 | 0.376 | 0.433 | – | – | – | – | – | 0.512 | 0.413 | 0.474 | 0.564 | 0.557
11 | LCLC-103H | 1.21 | 1.09 | 0.751 | 0.886 | 0.996 | 0.61 | 0.598 | 0.536 | 0.447 | 0.88 | 0.799 | 0.708 | 0.786 | 0.91 | – | – | – | – | –
12 | NCI-H1563 | 0.449 | 0.553 | 0.535 | 0.551 | 0.498 | 0.662 | 0.601 | 0.647 | 0.671 | – | – | – | – | – | 0.992 | 0.901 | 0.884 | 0.879 | 0.933
13 | HCC-366 | – | – | – | – | – | 0.166 | 0.156 | 0.108 | 0.0793 | 0.284 | 0.257 | – | 0.359 | 0.265 | 1.19 | 1.13 | 0.765 | 1.06 | 1.49
14 | NCI-H2342 | 0.636 | 0.767 | 0.7 | 0.761 | 0.821 | – | – | – | – | 0.76 | 0.495 | 0.441 | 0.491 | 0.5 | – | – | – | – | –
15 | SW 1573 | 0.197 | 0.25 | 0.242 | 0.293 | 0.284 | – | 0.597 | 0.519 | 0.328 | – | – | – | – | – | 1.11 | 1.3 | 1.02 | 1.1 | 1.28
16 | SK-LU-1 | 0.193 | 0.204 | 0.175 | 0.202 | 0.215 | 0.491 | 0.558 | 0.549 | 0.402 | – | – | – | – | – | 0.981 | 0.918 | – | 0.839 | 0.9
17 | NCI-H522 | 1.15 | 1.01 | 1.09 | 1.2 | 1.22 | – | – | – | – | 0.753 | 0.921 | 0.962 | 0.693 | 0.657 | – | – | – | – | –
18 | SK-MES-1 | 0.875 | 0.985 | 0.78 | 0.735 | 0.935 | 0.34 | 0.338 | 0.297 | 0.196 | – | – | – | – | – | 0.517 | 0.497 | 0.362 | 0.372 | 0.486
19 | EBC-1 | – | – | – | – | – | 0.319 | 0.33 | 0.46 | 0.329 | – | – | – | – | – | 0.213 | 0.211 | – | 0.237 | 0.218
20 | NCI-H1650 | 0.201 | 0.197 | – | 0.192 | 0.211 | 0.587 | 0.537 | 0.428 | 0.306 | – | – | – | – | – | 1.01 | 0.775 | 0.625 | 0.824 | 0.944
21 | IA-LM | – | – | – | – | – | 0.459 | 0.286 | 0.256 | 0.209 | – | – | – | – | – | 0.724 | 0.8 | 0.68 | 0.782 | 0.798
22 | NCI-H441 | 0.345 | 0.326 | 0.352 | 0.239 | 0.289 | 0.453 | 0.442 | 0.35 | 0.243 | 1.24 | 1.03 | 0.798 | 1.18 | 1.38 | – | – | – | – | –
23 | NCI-H520 | 0.21 | 0.204 | 0.246 | 0.228 | 0.199 | 0.316 | 0.272 | 0.271 | 0.232 | – | – | – | – | – | 0.956 | 0.944 | 0.793 | 0.755 | 1.14
